54 molecules from ChEMBL document CHEMBL1135903 (J Med Chem, 2002) can be followed below.

As a reminder, the solubility is how much of the substance goes into solution per volume. Low values mean a poorly soluble substance, high ones a readily soluble substance. What is called logD is lipophilicity at a set pH, counting ionised and neutral species. Usually Ki stands for a dissociation constant, usually derived from enzyme kinetics or from competition with a known ligand. Low readings indicate a stronger hold on the target, high ones a looser hold on the target.

The structures appear in SMILES notation. ≈ marks a conversion by molar mass, not a printed value. Where “and” joins values, the source holds several entries; their conditions need not be identical. Equal entries are not always repeated.

Assay in data set [1]: not given
This is another data set of the same source.

The nature of data set [2]: Solubility in Chloroform buffer at pH 7.4. It counts as physicochemical.
For data set [3] the following is noted: octanol/water.
For another data set, the target named is T1, Carbonic anhydrase 4 (Bos taurus, UniProt Q95323).
T1 sequence (Q95323 whole entry): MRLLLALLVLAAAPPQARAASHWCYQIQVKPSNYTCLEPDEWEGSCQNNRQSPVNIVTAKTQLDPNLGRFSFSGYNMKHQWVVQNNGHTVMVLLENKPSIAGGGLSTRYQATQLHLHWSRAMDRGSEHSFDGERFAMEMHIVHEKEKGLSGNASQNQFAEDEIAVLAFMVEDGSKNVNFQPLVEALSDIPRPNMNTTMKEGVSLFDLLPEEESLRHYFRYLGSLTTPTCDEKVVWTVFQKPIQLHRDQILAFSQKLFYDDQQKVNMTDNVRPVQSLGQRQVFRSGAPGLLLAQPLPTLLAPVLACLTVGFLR

In a further data set the target is Carbonic anhydrase 1 (Homo sapiens, UniProt P00915).
Sequence of Carbonic anhydrase 1 (P00915 whole entry): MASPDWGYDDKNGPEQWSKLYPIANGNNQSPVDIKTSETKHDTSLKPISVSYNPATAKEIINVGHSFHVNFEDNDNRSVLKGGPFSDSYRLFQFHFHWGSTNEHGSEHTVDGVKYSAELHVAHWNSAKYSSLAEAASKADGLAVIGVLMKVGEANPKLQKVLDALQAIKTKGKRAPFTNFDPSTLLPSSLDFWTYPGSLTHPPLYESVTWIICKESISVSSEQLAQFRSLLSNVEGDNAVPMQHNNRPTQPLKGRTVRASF

Description for Carbonic anhydrase 1: Inhibitory activity against Human carbonic anhydrase I
Description for Carbonic anhydrase 4: Inhibitory activity against bovine carbonic anhydrase IV

Regarding `Cn1nc(S(N)(=O)=O)s/c1=N/C(=O)CN(CCN(CC(=O)O)CC(=O)/N=c1/sc(S(N)(=O)=O)nn1C)CC(=O)O`, the “Kin x10e3” value was 3.1 hr-1. In data set [1], the “Kin x10e3” value is 5.5 hr-1. This molecule returned a solubility in data set [2] of 41 mM (≈ 26.4 mg/mL). In data set [3], this molecule came in with a logD of 1.333. At Carbonic anhydrase 4, this molecule yielded a Ki of 17 nM.
The matching figures for `NS(=O)(=O)c1ccc(NC(=O)CN(CCN(CCN(CC(=O)O)CC(=O)Nc2ccc(S(N)(=O)=O)cc2)CC(=O)O)CC(=O)O)cc1`: 3.6 hr-1, 4.5 hr-1, 35 mM (≈ 24.6 mg/mL), 1.456 and 156 nM.
The matching figures for `NS(=O)(=O)c1ccc(NC(=O)CN(CCN(CCN(CC(=O)O)CC(=O)O)CC(=O)O)CC(=O)O)cc1`: 3.8 hr-1, 6.9 hr-1, 48 mM (≈ 26.3 mg/mL), 0.983 and 180 nM.
With `NS(=O)(=O)c1nc2ccc(NC(=O)CN(CC(=O)O)CC(=O)O)cc2s1`, the values for the Ki on Carbonic anhydrase 1 and at Carbonic anhydrase 4 were 62 nM and 13 nM, respectively.
As for `NS(=O)(=O)c1ccc(NNC(=O)CNCCNCC(=O)O)cc1`, the values for the Ki at Carbonic anhydrase 1 and at Carbonic anhydrase 4 were 21800 nM and 950 nM, respectively.
On the same counts, the results for `NS(=O)(=O)c1ccc(NC(=O)CN(CCN(CC(=O)O)CC(=O)Nc2ccc(S(N)(=O)=O)cc2I)CC(=O)O)c(I)c1` are 89 nM and 45 nM.
Regarding `NS(=O)(=O)c1ccc(CNC(=O)CN(CCN(CC(=O)O)c2ccccc2O)c2ccccc2O)cc1`, the Ki was 1200 nM on Carbonic anhydrase 1 and 135 nM on Carbonic anhydrase 4.
On the same counts, the results for `NS(=O)(=O)c1ccc(NC(=O)CN(CC(=O)O)CC(=O)O)c(Cl)c1` are 960 nM and 150 nM.
On the same counts, the results for `NS(=O)(=O)c1cc(S(N)(=O)=O)c(NC(=O)CN(CCOCCOCCN(CC(=O)O)CC(=O)Nc2c(S(N)(=O)=O)cc(S(N)(=O)=O)c(Cl)c2Cl)CC(=O)O)c(Cl)c1Cl` are 49 nM and 21 nM.
For the molecule `NS(=O)(=O)c1cccc(NC(=O)CN(CC(=O)O)CC(=O)O)c1`, the Ki on Carbonic anhydrase 1 came to 23000 nM; on Carbonic anhydrase 4, 1520 nM.
For the molecule `NS(=O)(=O)c1ccc(CNC(=O)CN(CCOCCOCCN(CC(=O)O)CC(=O)NCc2ccc(S(N)(=O)=O)cc2)CC(=O)O)cc1`, the figures for the Ki on Carbonic anhydrase 1 and on Carbonic anhydrase 4 were 35 nM and 16 nM, respectively.
On the same counts, the results for `NS(=O)(=O)c1nnc(NC(=O)CNCCNCC(=O)O)s1` are 250 nM and 130 nM.
The matching figures for `NS(=O)(=O)c1nnc(NC(=O)CCNC(=O)CN(CC(=O)O)CC(=O)O)s1`: 268 nM and 45 nM.
On the same counts, the results for `NS(=O)(=O)c1ccccc1NC(=O)CN(CCN(CC(=O)O)CC(=O)Nc1ccccc1S(N)(=O)=O)CC(=O)O` are 8100 nM and 650 nM.
On to `NS(=O)(=O)c1ccc(CCOC(=O)CN(CC(=O)O)CC(=O)O)cc1`, for which the figures for the inhibition constant (Ki) at Carbonic anhydrase 1 and at Carbonic anhydrase 4 were 1100 nM and 320 nM, respectively.
Turning to `NS(=O)(=O)c1nc2ccc(OC(=O)CN(CCOCCOCCN(CC(=O)O)CC(=O)O)CC(=O)O)cc2s1`, the Ki at Carbonic anhydrase 1 came to 33 nM; at Carbonic anhydrase 4 it was 5 nM.
The matching figures for `NS(=O)(=O)c1ccc(NC(=O)CN(CC(=O)O)CC(=O)O)cc1`: 20600 nM and 450 nM.
`Cn1nc(S(N)(=O)=O)s/c1=N/C(=O)CN(CCN(CCN(CC(=O)O)CC(=O)/N=c1/sc(S(N)(=O)=O)nn1C)CC(=O)O)CC(=O)O`: the values for the Ki at Carbonic anhydrase 1 and on Carbonic anhydrase 4 were 54 nM and 9 nM, respectively.
For `NS(=O)(=O)c1nc2ccc(OCCOC(=O)CN(CCN(CC(=O)O)c3ccccc3O)c3ccccc3O)cc2s1`, the Ki at Carbonic anhydrase 1 turned out to be 41 nM; on Carbonic anhydrase 4 it was 7 nM.
As for `NS(=O)(=O)c1ccc(CNC(=O)CN(CCN(CC(=O)O)CC(=O)O)CC(=O)O)cc1`, the figures for the Ki on Carbonic anhydrase 1 and at Carbonic anhydrase 4 were 900 nM and 83 nM, respectively.
The matching figures for `NS(=O)(=O)c1ccc(NC(=O)CN(CCN(CC(=O)O)CC(=O)O)CC(=O)O)c(Br)c1`: 130 nM and 50 nM.
Consider `NS(=O)(=O)c1ccc(NC(=O)CN(CCOCCOCCN(CC(=O)O)CC(=O)Nc2ccc(S(N)(=O)=O)cc2Br)CC(=O)O)c(Br)c1`, for which the figures for the Ki on Carbonic anhydrase 1 and on Carbonic anhydrase 4 were 85 nM and 25 nM, respectively.
Consider `NS(=O)(=O)c1cc(S(N)(=O)=O)c(NC(=O)CN(CCOCCOCCN(CC(=O)O)CC(=O)O)CC(=O)O)c(Cl)c1Cl`, for which the Ki was 50 nM at Carbonic anhydrase 1 and 35 nM at Carbonic anhydrase 4.
Consider `NS(=O)(=O)c1nnc(NC(=O)CN(CCN(CC(=O)O)c2ccccc2O)c2ccccc2O)s1`, for which the results for the Ki on Carbonic anhydrase 1 and at Carbonic anhydrase 4 were 245 nM and 105 nM, respectively.
On the same counts, the results for `NS(=O)(=O)c1nc2ccc(NC(=O)CNCCNCC(=O)O)cc2s1` are 56 nM and 12 nM.
Consider `NS(=O)(=O)c1ccc(NC(=O)CN(CC(=O)O)CC(=O)O)c(F)c1`, for which the Ki on Carbonic anhydrase 1 was 1000 nM; at Carbonic anhydrase 4 it was 136 nM.
Turning to `Cn1nc(S(N)(=O)=O)s/c1=N/C(=O)CN(CCOCCOCCN(CC(=O)O)CC(=O)/N=c1/sc(S(N)(=O)=O)nn1C)CC(=O)O`, the Ki amounted to 36 nM at Carbonic anhydrase 1 and 5 nM at Carbonic anhydrase 4.
On the same counts, the results for `NS(=O)(=O)c1ccc(NC(=O)CNCC(=O)O)c(I)c1` are 515 nM and 114 nM.
Take `NS(=O)(=O)c1ccc(NC(=O)CNCCNCC(=O)O)c(F)c1`: the Ki on Carbonic anhydrase 1 was determined as 780 nM; at Carbonic anhydrase 4 it was 103 nM.
On to `NS(=O)(=O)c1ccc(CCNC(=O)CN(CCN(CC(=O)O)c2ccccc2O)c2ccccc2O)cc1`, for which the Ki at Carbonic anhydrase 1 stood at 1050 nM; at Carbonic anhydrase 4 it was 215 nM.
On the same counts, the results for `Cn1nc(S(N)(=O)=O)s/c1=N/C(=O)CNCC(=O)O` are 710 nM and 120 nM.
For `NS(=O)(=O)c1nc2ccc(OC(=O)CN(CCN(CCN(CC(=O)O)CC(=O)Oc3ccc4nc(S(N)(=O)=O)sc4c3)CC(=O)O)CC(=O)O)cc2s1`, the inhibition constant (Ki) is 16 nM at Carbonic anhydrase 1; 4 nM and 5 nM on Carbonic anhydrase 4.
Take `NS(=O)(=O)c1cc(S(N)(=O)=O)c(NC(=O)CN(CCOCCOCCN(CC(=O)O)CC(=O)O)CC(=O)O)cc1Cl`: the Ki on Carbonic anhydrase 1 was determined as 93 nM; on Carbonic anhydrase 4, 65 nM.
On the same counts, the results for `NS(=O)(=O)c1cccc(NC(=O)CNCCNCC(=O)O)c1` are 13000 nM and 1010 nM.
Take `NS(=O)(=O)c1nc2ccc(NC(=O)CN(CCOCCOCCN(CC(=O)O)CC(=O)O)CC(=O)O)cc2s1`: the Ki at Carbonic anhydrase 1 worked out at 39 nM; at Carbonic anhydrase 4, 7 nM.
The matching figures for `NS(=O)(=O)c1ccc(CCOC(=O)CN(CCN(CC(=O)O)CC(=O)OCCc2ccc(S(N)(=O)=O)cc2)CC(=O)O)cc1`: 450 nM and 165 nM.
On the same counts, the results for `NS(=O)(=O)c1ccc(NC(=O)CN(CCOCCOCCN(CC(=O)O)CC(=O)Nc2ccc(S(N)(=O)=O)cc2)CC(=O)O)cc1` are 300 nM and 76 nM.
The matching figures for `NS(=O)(=O)c1ccc(NC(=O)CN(CCN(CC(=O)O)CC(=O)O)CC(=O)O)c(Cl)c1`: 700 nM and 69 nM.
Regarding `NS(=O)(=O)c1ccc(COC(=O)CNCC(=O)O)cc1`, the inhibitory constant (Ki) at Carbonic anhydrase 1 is 1260 nM; on Carbonic anhydrase 4, 350 nM.
On the same counts, the results for `Cn1nc(S(N)(=O)=O)s/c1=N/C(=O)CN(CC(=O)O)CC(=O)O` are 520 nM and 106 nM.
For the molecule `NS(=O)(=O)c1ccc(NNC(=O)CN(CCOCCOCCN(CC(=O)O)CC(=O)O)CC(=O)O)cc1`, the results for the Ki on Carbonic anhydrase 1 and on Carbonic anhydrase 4 were 12500 nM and 620 nM, respectively.
On the same counts, the results for `NS(=O)(=O)c1ccc(CNC(=O)CNCCNCC(=O)O)cc1` are 1760 nM and 245 nM.
On the same counts, the results for `NS(=O)(=O)c1ccc(COC(=O)CN(CCOCCOCCN(CC(=O)O)CC(=O)O)CC(=O)O)cc1` are 500 nM and 250 nM.
On the same counts, the results for `NS(=O)(=O)c1ccc(CNC(=O)CN(CCOCCOCCN(CC(=O)O)CC(=O)O)CC(=O)O)cc1` are 610 nM and 48 nM.
With `NS(=O)(=O)c1nnc(NC(=O)CNCC(=O)O)s1`, the results for the Ki on Carbonic anhydrase 1 and on Carbonic anhydrase 4 were 415 nM and 265 nM, respectively.
For `NS(=O)(=O)c1ccc(CCOC(=O)CN(CCOCCOCCN(CC(=O)O)CC(=O)OCCc2ccc(S(N)(=O)=O)cc2)CC(=O)O)cc1`, the inhibition constant (Ki) amounted to 300 nM on Carbonic anhydrase 1 and 96 nM at Carbonic anhydrase 4.
On the same counts, the results for `NS(=O)(=O)c1ccc(CCOC(=O)CN(CCOCCOCCN(CC(=O)O)CC(=O)O)CC(=O)O)cc1` are 430 nM and 155 nM.
On the same counts, the results for `NS(=O)(=O)c1cc(S(N)(=O)=O)c(NC(=O)CN(CCN(CC(=O)O)CC(=O)O)CC(=O)O)c(Cl)c1Cl` are 130 nM and 96 nM.
For `NS(=O)(=O)c1ccc(NC(=O)CNCC(=O)O)c(F)c1`, the Ki on Carbonic anhydrase 1 amounted to 1300 nM; on Carbonic anhydrase 4 it was 145 nM.
With `NS(=O)(=O)c1ccc(NC(=O)CN(CCN(CC(=O)O)c2ccccc2O)c2ccccc2O)c(Br)c1`, the Ki on Carbonic anhydrase 1 was 175 nM; on Carbonic anhydrase 4, 56 nM.
The matching figures for `NS(=O)(=O)c1cc(S(N)(=O)=O)c(NC(=O)CN(CCOCCOCCN(CC(=O)O)CC(=O)Nc2cc(Cl)c(S(N)(=O)=O)cc2S(N)(=O)=O)CC(=O)O)cc1Cl`: 50 nM and 36 nM.
As for `NS(=O)(=O)c1cccc(NC(=O)CN(CCOCCOCCN(CC(=O)O)CC(=O)Nc2cccc(S(N)(=O)=O)c2)CC(=O)O)c1`, the Ki was 6150 nM at Carbonic anhydrase 1 and 400 nM at Carbonic anhydrase 4.
`NS(=O)(=O)c1ccc(CCNC(=O)CNCCNCC(=O)O)cc1`: the Ki came to 1540 nM at Carbonic anhydrase 1 and 250 nM at Carbonic anhydrase 4.
Consider `NS(=O)(=O)c1ccc(NNC(=O)CNCC(=O)O)cc1`, for which the Ki is 32700 nM on Carbonic anhydrase 1 and 980 nM on Carbonic anhydrase 4.
